# Read-outs that look alike come from different tables or passages of the source.
# How the values were obtained:
# Assay type in all cases: cell-based
# NCI-H23 [1] = assay: NCI60 five-dose screen; details: Homo sapiens
# OVCAR-8 [2] = assay: NCI60 one-dose screen; details: Homo sapiens
# M14 = assay: NCI60 one-dose screen; details: Homo sapiens
# OVCAR-8 [3] = assay: NCI60 five-dose screen; details: Homo sapiens
# SN12C = assay: NCI60 one-dose screen; details: Homo sapiens, read-out: Growth percent
# LOX IMVI = assay: NCI60 five-dose screen; details: Homo sapiens
# UACC-257 = assay: NCI60 five-dose screen; details: Homo sapiens
# A549/ATCC = assay: NCI60 five-dose screen; details: Homo sapiens
# OVCAR-3 = assay: NCI60 five-dose screen; details: Homo sapiens
# SNB-19 [4] = assay: NCI60 five-dose screen; details: Homo sapiens
# T-47D = assay: NCI60 five-dose screen; details: Homo sapiens, T47D
# MALME-3M [5] = assay: NCI60 five-dose screen; details: Homo sapiens
# SF-295 = assay: NCI60 one-dose screen; details: Homo sapiens
# Renal Cancer panel = assay: NCI60 five-dose screen, panel mean; details: Homo sapiens, read-out: Mean GI50
# SK-MEL-28 [6] = assay: NCI60 five-dose screen; details: Homo sapiens
# HOP-62 = assay: NCI60 five-dose screen; details: Homo sapiens
# MOLT-4 = assay: NCI60 one-dose screen; details: Homo sapiens
# SK-MEL-2 = assay: NCI60 one-dose screen; details: Homo sapiens
# UACC-62 = assay: NCI60 one-dose screen; details: Homo sapiens
# MDA-MB-435 = assay: NCI60 one-dose screen; details: Homo sapiens
# MDA-MB-468 = assay: NCI60 five-dose screen; details: Homo sapiens
# Leukemia panel = assay: NCI60 five-dose screen, panel mean; details: Homo sapiens, read-out: Mean GI50
# EKVX = assay: NCI60 five-dose screen; details: Homo sapiens
# MALME-3M [7] = assay: NCI60 one-dose screen; details: Homo sapiens, read-out: Growth percent
# SK-MEL-5 [8] = assay: NCI60 five-dose screen; details: Homo sapiens
# RPMI-8226 = assay: NCI60 one-dose screen; details: Homo sapiens
# Ovarian Cancer panel = assay: NCI60 five-dose screen, panel mean; details: Homo sapiens, read-out: Mean GI50
# SF-268 = assay: NCI60 one-dose screen; details: Homo sapiens
# SNB-19 [9] = assay: NCI60 one-dose screen; details: Homo sapiens
# NCI-H460 = assay: NCI60 one-dose screen; details: Homo sapiens
# IGROV1 = assay: NCI60 one-dose screen; details: Homo sapiens
# HOP-92 = assay: NCI60 one-dose screen; details: Homo sapiens
# SF-539 = assay: NCI60 five-dose screen; details: Homo sapiens
# 786-0 = assay: NCI60 one-dose screen; details: Homo sapiens
# HL-60(TB) = assay: NCI60 five-dose screen; details: Homo sapiens
# HCT-15 = assay: NCI60 five-dose screen; details: Homo sapiens
# NCI-H23 [10] = assay: NCI60 one-dose screen; details: Homo sapiens
# MCF7 [11] = assay: NCI60 five-dose screen; details: Homo sapiens
# SK-MEL-5 [12] = assay: NCI60 one-dose screen; details: Homo sapiens
# HS 578T = assay: NCI60 one-dose screen; details: Homo sapiens, read-out: Growth percent
# NCI-H322M = assay: NCI60 one-dose screen; details: Homo sapiens, read-out: Growth percent
# COLO 205 = assay: NCI60 one-dose screen; details: Homo sapiens
# MCF7 [13] = assay: NCI60 one-dose screen; details: Homo sapiens
# SK-MEL-28 [14] = assay: NCI60 one-dose screen; details: Homo sapiens
# SR = assay: NCI60 one-dose screen; details: Homo sapiens, read-out: Growth percent
# KM12 = assay: NCI60 five-dose screen; details: Homo sapiens
smiles,measurement,setting,value
"CC[C@]12C=CCN3CC[C@@]4(c5ccc(OC)cc5N(C)[C@H]4[C@@](O)(C(=O)OC)[C@@H]1OC(=O)CCC[P+](c1ccccc1)(c1ccccc1)c1ccccc1)[C@@H]32 [compound 3, reference compound]",GI50,"NCI-H23 [1]; NCI-H23, Non-small Cell Lung Cancer, five-dose, read-out: GI50",971 nM
same,activity at 10 µM,"OVCAR-8 [2]; OVCAR-8, 10 μM, one-dose, read-out: Growth percent",3.13%
same,activity at 10 µM,"M14; M14, 10 μM, one-dose, read-out: Growth percent",17.7%
same,GI50,"OVCAR-8 [3]; OVCAR-8, Ovarian Cancer, five-dose, read-out: GI50",1270 nM
same,activity at 10 µM,"SN12C; 10 μM, one-dose",2.73%
same,GI50,"LOX IMVI; Melanoma, five-dose, read-out: GI50",858 nM
same,GI50,"UACC-257; UACC-257, UACC-257, Melanoma, five-dose, read-out: GI50",240 nM
same,GI50,"A549/ATCC; A549/ATCC, Non-small Cell Lung Cancer, five-dose, read-out: GI50",1350 nM
same,GI50,"OVCAR-3; OVCAR-3, Ovarian Cancer, five-dose, read-out: GI50",369 nM
same,GI50,"SNB-19 [4]; SNB-19, SNB-19, CNS Cancer, five-dose, read-out: GI50",334 nM
same,GI50,"T-47D; T-47D, Breast Cancer, five-dose, read-out: GI50",192 nM
same,GI50,"MALME-3M [5]; MALME-3M, Melanoma, five-dose, read-out: GI50",283 nM
same,activity at 10 µM,"SF-295; SF-295, 10 μM, one-dose, read-out: Growth percent",23.3%
same,GI50,Renal Cancer panel; mean over Renal Cancer panel,3520 nM
same,GI50,"SK-MEL-28 [6]; SK-MEL-28, Melanoma, five-dose, read-out: GI50",261 nM
same,GI50,"HOP-62; HOP-62, Non-small Cell Lung Cancer, five-dose, read-out: GI50",1370 nM
same,activity at 10 µM,"MOLT-4; MOLT-4, 10 μM, one-dose, read-out: Growth percent",5.41%
same,activity at 10 µM,"SK-MEL-2; SK-MEL-2, 10 μM, one-dose, read-out: Growth percent",-65.3%
same,activity at 10 µM,"UACC-62; UACC-62, 10 μM, one-dose, read-out: Growth percent",-59.3%
same,activity at 10 µM,"MDA-MB-435; MDA-MB-435, 10 μM, one-dose, read-out: Growth percent",-21.6%
same,GI50,"MDA-MB-468; MDA-MB-468, MDA-MB-468, Breast Cancer, five-dose, read-out: GI50",126 nM
same,GI50,Leukemia panel; mean over Leukemia panel,360 nM
same,GI50,"EKVX; Non-small Cell Lung Cancer, five-dose, read-out: GI50",470 nM
same,activity at 10 µM,"MALME-3M [7]; MALME-3M, 10 μM, one-dose",-12.4%
same,GI50,"SK-MEL-5 [8]; SK-MEL-5, Melanoma, five-dose, read-out: GI50",766 nM
same,activity at 10 µM,"RPMI-8226; RPMI-8226, 10 μM, one-dose, read-out: Growth percent",-12.7%
same,GI50,Ovarian Cancer panel; mean over Ovarian Cancer panel,7780 nM
same,activity at 10 µM,"SF-268; SF-268, 10 μM, one-dose, read-out: Growth percent",19.2%
same,activity at 10 µM,"SNB-19 [9]; SNB-19, 10 μM, one-dose, read-out: Growth percent",11%
same,activity at 10 µM,"NCI-H460; NCI-H460, 10 μM, one-dose, read-out: Growth percent",6.11%
same,activity at 10 µM,"IGROV1; IGROV-1, IGROV1, 10 μM, one-dose, read-out: Growth percent",-0.06%
same,activity at 10 µM,"HOP-92; HOP-92, 10 μM, one-dose, read-out: Growth percent",-40%
same,GI50,"SF-539; SF-539, CNS Cancer, five-dose, read-out: GI50",662 nM
same,activity at 10 µM,"786-0; 786-0, 10 μM, one-dose, read-out: Growth percent",20.6%
same,GI50,"HL-60(TB); HL-60, HL-60(TB), Leukemia, five-dose, read-out: GI50",124 nM
same,GI50,"HCT-15; HCT-15, Colon Cancer, five-dose, read-out: GI50",8500 nM
same,activity at 10 µM,"NCI-H23 [10]; NCI-H23, 10 μM, one-dose, read-out: Growth percent",-8.66%
same,GI50,"MCF7 [11]; MCF7, MCF7, Breast Cancer, five-dose, read-out: GI50",306 nM
same,activity at 10 µM,"SK-MEL-5 [12]; SK-MEL-5, 10 μM, one-dose, read-out: Growth percent",-91.5%
same,activity at 10 µM,"HS 578T; HS 578T, 10 μM, one-dose",25.5%
same,activity at 10 µM,"NCI-H322M; 10 μM, one-dose",35.6%
same,activity at 10 µM,"COLO 205; COLO 205, 10 μM, one-dose, read-out: Growth percent",-87.9%
same,activity at 10 µM,"MCF7 [13]; MCF7, 10 μM, one-dose, read-out: Growth percent",-3.34%
same,activity at 10 µM,"SK-MEL-28 [14]; SK-MEL-28, 10 μM, one-dose, read-out: Growth percent",20.9%
same,activity at 10 µM,"SR; 10 μM, one-dose",9.57%
same,GI50,"KM12; KM12, KM12, Colon Cancer, five-dose, read-out: GI50",297 nM
CCC12C=CCN3CCC4(c5ccc(OC)cc5N(C)C4C(O)(C(=O)OC)C1OC(=O)CCC[P+](c1ccc(C)cc1)(c1ccc(C)cc1)c1ccc(C)cc1)C32 (centres unmarked) [9a],GI50,NCI-H23 [1]; NCI-H23,303 nM
same,activity at 10 µM,"OVCAR-8 [2]; OVCAR-8, read-out: Growth percent",-85%
same,activity at 10 µM,"M14; M14, read-out: Growth percent",-85.3%
same,GI50,OVCAR-8 [3]; OVCAR-8,372 nM
same,activity at 10 µM,SN12C,-88.1%
same,GI50,LOX IMVI,333 nM
same,GI50,UACC-257; UACC-257,272 nM
same,GI50,A549/ATCC; A549,334 nM
same,GI50,OVCAR-3; OVCAR-3,374 nM
same,GI50,SNB-19 [4]; SNB-19,306 nM
same,GI50,T-47D,314 nM
same,GI50,MALME-3M [5]; Malme-3M,220 nM
same,activity at 10 µM,"SF-295; SF-295, read-out: Growth percent",-89.1%
same,GI50,Renal Cancer panel,1050 nM
same,GI50,SK-MEL-28 [6]; SK-MEL-28,361 nM
same,GI50,HOP-62; HOP-62,470 nM
same,activity at 10 µM,"MOLT-4; MOLT-4, read-out: Growth percent",-45.1%
same,activity at 10 µM,"SK-MEL-2; SK-MEL-2, read-out: Growth percent",-85.4%
same,activity at 10 µM,"UACC-62; UACC-62, read-out: Growth percent",-96.8%
same,activity at 10 µM,"MDA-MB-435; MDA-MB-435, read-out: Growth percent",-57.5%
same,GI50,MDA-MB-468; MDA-MB-468,165 nM
same,GI50,Leukemia panel,260 nM
same,GI50,EKVX,534 nM
same,activity at 10 µM,MALME-3M [7]; Malme-3M,-94.4%
same,GI50,SK-MEL-5 [8]; SK-MEL-5,532 nM
same,activity at 10 µM,"RPMI-8226; RPMI-8226, read-out: Growth percent",-56.3%
same,GI50,Ovarian Cancer panel,1570 nM
same,activity at 10 µM,"SF-268; SF-268, read-out: Growth percent",-46.3%
same,activity at 10 µM,"SNB-19 [9]; SNB-19, read-out: Growth percent",-97.3%
same,activity at 10 µM,"NCI-H460; NCI-H460, read-out: Growth percent",-85.2%
same,activity at 10 µM,"IGROV1; IGROV-1, read-out: Growth percent",-89.5%
same,activity at 10 µM,"HOP-92; HOP-92, read-out: Growth percent",-83.2%
same,GI50,SF-539; SF-539,338 nM
same,activity at 10 µM,"786-0; 786-0, read-out: Growth percent",-88%
same,GI50,HL-60(TB); HL-60,162 nM
same,GI50,HCT-15; HCT-15,1620 nM
same,activity at 10 µM,"NCI-H23 [10]; NCI-H23, read-out: Growth percent",-90.7%
same,GI50,MCF7 [11]; MCF7,281 nM
same,activity at 10 µM,"SK-MEL-5 [12]; SK-MEL-5, read-out: Growth percent",-99.4%
same,activity at 10 µM,HS 578T; Hs-578T,-60.3%
same,activity at 10 µM,NCI-H322M,-98.4%
same,activity at 10 µM,"COLO 205; COLO 205, read-out: Growth percent",-50.2%
same,activity at 10 µM,"MCF7 [13]; MCF7, read-out: Growth percent",-76.3%
same,activity at 10 µM,"SK-MEL-28 [14]; SK-MEL-28, read-out: Growth percent",-96.6%
same,activity at 10 µM,SR,5.74%
same,GI50,KM12; KM12,376 nM
